Tests used:
[1] = system: α-isomaltosylglucosaccharide-forming enzyme; assay: Action on saccharides (substrates), Enzyme of Strain C11; type: biochemical, Bacillus globisporus C11; design: key: −: it showed no change; +: it showed a slight reduction of the color spot of the substrate and the formation of other reaction product; ++: it showed a high reduction of the color spot of the substrate and the formation of other reaction product; +++: it showed a substantial disappearance of the substrate spot and the formation of other reaction product; conditions: two units/g substrate, substrate 2% (w/v), 30° C., pH 6.0, 24 hours, TLC
Procedure: (§1) It was tested whether saccharides can be used as substrates for the α-isomaltosylglucosaccharide-forming enzyme. For the purpose, a solution of maltose, maltotriose, maltotetraose, maltopentaose, maltohexaose, maltoheptaose, isomaltose, isomaltotriose, panose, isopanose, trehalose, kojibiose, nigerose, neotrehalose, cellobiose, gentibiose, maltitol, maltotriitol, lactose, sucrose, erlose, selaginose, maltosyl glucoside, or isomaltosyl glucoside was prepared.
(§2) To each of the above solutions was added two units/g substrate of a purified specimen of α-isomaltosylglucosaccharide-forming enzyme from either Bacillus globisporus C9 obtained by the method in Experiment 4-2, Bacillus globisporus C11 obtained by the method in Experiment 7-2, Bacillus globisporus N75 obtained by the method in Experiment 11-2, or Arthrobacter globiformis A19 obtained by the method in Experiment 15-2, and the resulting each solution was adjusted to give a substrate concentration of 2% (w/v) and incubated at 30° C. and pH 6.0, except for using pH 8.4 for the enzyme from Arthrobacter globiformis A19, for 24 hours. The enzyme solutions before and after the enzymatic reactions were respectively analyzed on TLC disclosed in Experiment 1 to confirm whether the enzymes acted on these substrates.

[2] = system: α-isomaltosylglucosaccharide-forming enzyme; assay: Action on saccharides (substrates), Enzyme of Strain A19; type: biochemical, Arthrobacter globiformis A19; design: key: −: it showed no change; +: it showed a slight reduction of the color spot of the substrate and the formation of other reaction product; ++: it showed a high reduction of the color spot of the substrate and the formation of other reaction product; +++: it showed a substantial disappearance of the substrate spot and the formation of other reaction product; conditions: two units/g substrate, substrate 2% (w/v), 30° C., pH 8.4, 24 hours, TLC
Procedure: as §1, §2

[3] = system: α-isomaltosylglucosaccharide-forming enzyme; assay: Action on saccharides (substrates), Enzyme of Strain N75; type: biochemical, Bacillus globisporus N75; design: key: −: it showed no change; +: it showed a slight reduction of the color spot of the substrate and the formation of other reaction product; ++: it showed a high reduction of the color spot of the substrate and the formation of other reaction product; +++: it showed a substantial disappearance of the substrate spot and the formation of other reaction product; conditions: two units/g substrate, substrate 2% (w/v), 30° C., pH 6.0, 24 hours, TLC
Procedure: as §1, §2

[4] = system: α-isomaltosylglucosaccharide-forming enzyme; assay: Transfer-acceptor specificity, Enzyme of Strain N75; type: biochemical, Bacillus globisporus N75; conditions: acceptor 1.6%, PINE-DEX #100 donor 4%, one unit/g donor, 30° C., pH 6.0, 24 hours
Procedure: (§3) Using different saccharides, it was tested whether the saccharides were used as transferring-acceptors for the α-isomaltosylglucosaccharide-forming enzyme of the present invention. A solution of D-glucose, D-xylose, L-xylose, D-galactose, D-fructose, D-mannose, D-arabinose, D-fucose, D-psicose, L-sorbose, L-rhamnose, methyl-α-glucopyranoside, methyl-β-glucopyranoside, N-acetyl-glucosamine, sorbitol, trehalose, isomaltose, isomaltotriose, cellobiose, gentibiose, glycerol, maltitol, lactose, sucrose, α-cyclodextrin, β-cyclodextrin, γ-cyclodextrin, or L-ascorbic acid was prepared.
(§4) To each solution with a saccharide concentration of 1.6% was added “PINE-DEX #100”, a partial starch hydrolysate, as a saccharide donor, to give a concentration of 4%, and admixed with one unit/g saccharide donor, d.s.b., of either of purified specimens of α-isomaltosylglucosaccharide-forming enzyme from Bacillus globisporus C9 obtained by the method in Experiment 4-2, Bacillus globisporus C11 obtained by the method in Experiment 7-2, Bacillus globisporus N75 obtained by the method in Experiment 11-2, or Arthrobacter globiformis A19 obtained by the method in Experiment 15-2, and incubated at 30° C. and pH 6.0, except that pH 8.4 was used for the enzyme from Arthrobacter globiformis A19, for 24 hours. The reaction mixtures of the post-enzymatic reactions were analyzed on gas chromatography (abbreviated as “GLC” hereinafter) for monosaccharides and disaccharides as acceptors, and on HPLC for trisaccharides as acceptors to confirm whether these saccharides could be used as their transfer acceptors. In the case of performing GLC, the following apparatuses and conditions are used: GLC apparatus, “GC-16A” commercialized by Shimadzu Corporation, Tokyo, Japan; column, a stainless-steel column, 3 mm in diameter and 2 m in length, packed with 2% “SILICONE OV-17/[…]”, commercialized by GL Sciences Inc., Tokyo, Japan; carrier gas, nitrogen gas at a flow rate of 40 ml/min under temperature conditions of increasing from 160° C. to 320° C. at an increasing temperature rate of 7.5° C./min; and detection, a hydrogen flame ionization detector. In the case of HPLC analysis, the apparatuses and conditions used are: HPLC apparatus, “CCPD” commercialized by Tosoh Corporation, Tokyo, Japan; column, “ODS-AQ-303” commercialized by YMC Co., Ltd., Tokyo, Japan; eluent, water at a flow rate of 0.5 ml/min; and detection, a differential refractometer.

[5] = system: α-isomaltosylglucosaccharide-forming enzyme; assay: Transfer-acceptor specificity, Enzyme of Strain A19; type: biochemical, Arthrobacter globiformis A19; conditions: acceptor 1.6%, PINE-DEX #100 donor 4%, one unit/g donor, 30° C., pH 8.4, 24 hours
Procedure: as §3, §4

[6] = system: α-isomaltosylglucosaccharide-forming enzyme; assay: Action on saccharides (substrates), Enzyme of Strain C9; type: biochemical, Bacillus globisporus C9; design: key: −: it showed no change; +: it showed a slight reduction of the color spot of the substrate and the formation of other reaction product; ++: it showed a high reduction of the color spot of the substrate and the formation of other reaction product; +++: it showed a substantial disappearance of the substrate spot and the formation of other reaction product; conditions: two units/g substrate, substrate 2% (w/v), 30° C., pH 6.0, 24 hours, TLC
Procedure: as §1, §2

[7] = system: α-isomaltosylglucosaccharide-forming enzyme; assay: Transfer-acceptor specificity, Enzyme of Strain C11; type: biochemical, Bacillus globisporus C11; conditions: acceptor 1.6%, PINE-DEX #100 donor 4%, one unit/g donor, 30° C., pH 6.0, 24 hours
Procedure: as §3, §4

[8] = system: α-isomaltosylglucosaccharide-forming enzyme; assay: Transfer-acceptor specificity, Enzyme of Strain C9; type: biochemical, Bacillus globisporus C9; conditions: acceptor 1.6%, PINE-DEX #100 donor 4%, one unit/g donor, 30° C., pH 6.0, 24 hours
Procedure: as §3, §4

Row | Enzymatic action, Enzyme of Strain C11 [1] | Enzymatic action, Enzyme of Strain A19 [2] | Enzymatic action, Enzyme of Strain N75 [3] | Enzymatic action, Enzyme of Strain C9 [6] | Structure (SMILES) | Product of transferring reaction, Enzyme of Strain N75 [4] | Product of transferring reaction, Enzyme of Stain A19 [5] | Product of transferring reaction, Enzyme of Strain C11 [7] | Product of transferring reaction, Enzyme of Strain C9 [8]
1 | − | − | − | − | O=C[C@H](O)[C@@H](O)[C@H](O[C@@H]1O[C@H](CO)[C@@H](O)[C@H](O)[C@H]1O)[C@H](O)CO [Cellobiose] | ++ (a saccharide-transferred product was detected in an amount over ten percent through transfer reaction to acceptor) | ++ (a saccharide-transferred product was detected in an amount over ten percent through transfer reaction to acceptor) | ++ (a saccharide-transferred product was detected in an amount over ten percent through transfer reaction to acceptor) | ++ (a saccharide-transferred product was detected in an amount over ten percent through transfer reaction to acceptor)
2 | − | − | − | − | OC[C@H]1O[C@@H](OC[C@H]2OC(O)[C@H](O)[C@@H](O)[C@@H]2O)[C@H](O)[C@@H](O)[C@@H]1O (stereo partly shown) [Gentibiose] | ++ (a saccharide-transferred product was detected in an amount over ten percent through transfer reaction to acceptor) | + (a saccharide-transferred product was detected in an amount over one percent but less than ten percent through transfer reaction to acceptor) | ++ (a saccharide-transferred product was detected in an amount over ten percent through transfer reaction to acceptor) | ++ (a saccharide-transferred product was detected in an amount over ten percent through transfer reaction to acceptor)
3 | − | − | − | − | OC[C@H]1O[C@H](OC[C@H]2OC(O)[C@H](O)[C@@H](O)[C@@H]2O)[C@H](O)[C@@H](O)[C@@H]1O (stereo partly shown) [Isomaltose] | ++ (a saccharide-transferred product was detected in an amount over ten percent through transfer reaction to acceptor) | + (a saccharide-transferred product was detected in an amount over one percent but less than ten percent through transfer reaction to acceptor) | ++ (a saccharide-transferred product was detected in an amount over ten percent through transfer reaction to acceptor) | ++ (a saccharide-transferred product was detected in an amount over ten percent through transfer reaction to acceptor)
4 | − | − | − | − | OC[C@H]1O[C@H](OC[C@H]2O[C@H](OC[C@H]3OC(O)[C@H](O)[C@@H](O)[C@@H]3O)[C@H](O)[C@@H](O)[C@@H]2O)[C@H](O)[C@@H](O)[C@@H]1O (stereo partly shown) [Isomaltotriose] | ++ (a saccharide-transferred product was detected in an amount over ten percent through transfer reaction to acceptor) | ∀ (a saccharide-transferred product was detected in an amount less than one percent through transfer reaction to acceptor) | ++ (a saccharide-transferred product was detected in an amount over ten percent through transfer reaction to acceptor) | ++ (a saccharide-transferred product was detected in an amount over ten percent through transfer reaction to acceptor)
5 | − | − | − | − | OC[C@H]1O[C@@H](O[C@H]2[C@H](O)[C@@H](O)C(O)O[C@@H]2CO)[C@H](O)[C@@H](O)[C@H]1O (stereo partly shown) [Lactose] | ++ (a saccharide-transferred product was detected in an amount over ten percent through transfer reaction to acceptor) | ++ (a saccharide-transferred product was detected in an amount over ten percent through transfer reaction to acceptor) | ++ (a saccharide-transferred product was detected in an amount over ten percent through transfer reaction to acceptor) | ++ (a saccharide-transferred product was detected in an amount over ten percent through transfer reaction to acceptor)

Reference: patent US7811797B2, “α-isomaltosylglucosaccharide-forming enzyme, process and uses of the same” (Kabushiki Kaisha Hayashibara Seibutsu Kagaku Kenkyujo, priority 2000, dated 2010)
